We go through two compounds from ChEMBL document CHEMBL1126778, “Adenosine A1 antagonists. 3. Structure-activity relationships on amelioration against scopolamine- or N6-((R)-phenylisopropyl)adenosine-induced cognitive disturbance” (J Med Chem, 1993).

A value given as a limit tells only on which side of the number the result lay.

In test [1] the target is T1, Adenosine receptor A1 (Bos taurus) (UniProt P28190).
T1 sequence (whole entry): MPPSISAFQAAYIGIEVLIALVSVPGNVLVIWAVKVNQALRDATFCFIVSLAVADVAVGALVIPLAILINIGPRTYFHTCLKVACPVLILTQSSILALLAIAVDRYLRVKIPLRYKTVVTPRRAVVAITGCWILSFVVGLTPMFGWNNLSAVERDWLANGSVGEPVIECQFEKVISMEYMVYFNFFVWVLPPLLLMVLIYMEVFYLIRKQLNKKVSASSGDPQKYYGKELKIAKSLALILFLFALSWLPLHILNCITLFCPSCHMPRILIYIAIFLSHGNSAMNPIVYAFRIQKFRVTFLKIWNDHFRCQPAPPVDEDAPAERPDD
Put plainly: Binding affinity for Adenosine A1 receptor of bovine brain at 10e-5 M with [125I]-N6-aminobenzyladenosine.

In test [2] the target is Adenosine A2 receptor (Homo sapiens, UniProt P29275+P29274). The test is described as follows: Binding affinity towards Adenosine A2 receptor of human platelets with [125I]-N6-aminobenzyladenosine.
Test [3] deals with Mus musculus. Put plainly: Acquisition time in (R)-PIA) induced avoidance test (performed in mice) for antagonistic activity after peroral administration of 0.08 mg/kg. The class given is functional. Particulars: route oral.
Test [4] has as its system Mus musculus. Put plainly: Acquisition time in (R)-PIA) induced avoidance test (performed in mice) for antagonistic activity after p.o. administration of 0.31 mg/kg. The format is functional. Particulars: route oral.
The subject of test [5] is Mus musculus. The test is described as follows: Acquisition time in (R)-PIA) induced avoidance test (performed in mice) for antagonistic activity after p.o. administration of 1.25 mg/kg. The format is functional. As to conditions: route oral.
In test [6] the test system is Mus musculus. The test is described as follows: Acquisition time in (R)-PIA) induced avoidance test (performed in mice) for antagonistic activity after peroral administration of 20 mg/kg. The class given is functional. Particulars: route oral.
In test [7] the test system is Mus musculus. Put plainly: Retention time in (R)-PIA) induced avoidance test (performed in mice) for antagonistic activity after p.o. administration of 1.25 mg/kg. The format is functional, organism-based. The arrangement: dose 1.25 mg/kg.
The subject of test [8] is Mus musculus. Put plainly: Retention time in (R)-PIA) induced avoidance test (performed in mice) for antagonistic activity after peroral administration of 20 mg/kg. The format is functional, organism-based. The arrangement: dose 20 mg/kg.
Test [9] deals with Mus musculus. The test is described as follows: Retention time in (R)-PIA) induced avoidance test (performed in mice) for antagonistic activity after peroral administration of 5 mg/kg. The class given is functional, organism-based. Details: dose 5 mg/kg.
Test [10] has as its system Mus musculus. The test is described as follows: Retention time in (R)-PIA) induced avoidance test (performed in mice) for antagonistic activity after peroral administration of 0.08 mg/kg. Details: dose 0.08 mg/kg. The format is functional, organism-based.
Test [11] concerns Mus musculus. The test is described as follows: Retention time in (R)-PIA) induced avoidance test (performed in mice) for antagonistic activity after peroral administration of 0.31 mg/kg. The class given is functional, organism-based. Details: dose 0.31 mg/kg.
Test [12] relates to Rattus norvegicus. Put plainly: Acquisition time in Scopolamine induced avoidance test (performed in rat) for antagonistic activity after peroral administration of 1.25 mg/kg. The format is functional. As to conditions: route oral.
The test system of test [13] is Rattus norvegicus. Put plainly: Acquisition time in Scopolamine induced avoidance test (performed in rat) for antagonistic activity after peroral administration of 20 mg/kg. The class given is functional. As to conditions: route oral.
Test [14] has as its system Rattus norvegicus. Put plainly: Acquisition time in Scopolamine induced avoidance test (performed in rat) for antagonistic activity after p.o. administration of 0.08 mg/kg. The format is functional. Particulars: route oral.
Test [15] deals with Rattus norvegicus. Put plainly: Acquisition time in Scopolamine induced avoidance test (performed in rat) for antagonistic activity after p.o. administration of 0.31 mg/kg. The class given is functional. As to conditions: route oral.
The test system of test [16] is Rattus norvegicus. Put plainly: Acquisition time in Scopolamine induced avoidance test (performed in rat) for antagonistic activity after p.o. administration of 5 mg/kg. The class given is functional. Particulars: route oral.
In test [17] the test system is Rattus norvegicus. The test is described as follows: Retention time in Scopolamine induced avoidance test (performed in […]) for antagonistic activity after peroral administration of 5 mg/kg. The class given is functional, organism-based. Details: dose 5 mg/kg.
In test [18] the test system is Rattus norvegicus. Put plainly: Retention time in Scopolamine induced avoidance test (performed in rat) for antagonistic activity after p.o. administration of 0.08 mg/kg. The class given is functional, organism-based. The arrangement: dose 0.08 mg/kg.
Test [19] concerns Rattus norvegicus. The test is described as follows: Retention time in Scopolamine induced avoidance test (performed in rat) for antagonistic activity after p.o. administration of 0.31 mg/kg. The format is functional, organism-based. Details: dose 0.31 mg/kg.
In test [20] the test system is Rattus norvegicus. Put plainly: Retention time in Scopolamine induced avoidance test (performed in rat) for antagonistic activity after peroral administration of 1.25 mg/kg. The format is functional, organism-based. The arrangement: dose 1.25 mg/kg.
Test [21] concerns Rattus norvegicus. Put plainly: Retention time in Scopolamine induced avoidance test (performed in rat) for antagonistic activity after peroral administration of 20 mg/kg. The class given is functional, organism-based. Details: dose 20 mg/kg.
For test [22], the system named is Mus musculus. The test is described as follows: Acquisition time in (R)-PIA) induced avoidance test (performed in mice) for antagonistic activity after peroral administration of 5 mg/kg. As to conditions: route oral. The format is functional.
In test [23] the test system is Mus musculus. The test is described as follows: Retention time in (R)-PIA) induced avoidance test (performed in mice) for antagonistic activity after peroral administration of 0.02 mg/kg.
The test system of test [24] is Mus musculus. The test is described as follows: Acquisition time in (R)-PIA) induced avoidance test (performed in mice) for antagonistic activity after peroral administration of 0.02 mg/kg. Particulars: route oral.
Test [25] concerns Mus musculus. Put plainly: Tested for locomotor activity after oral administration of 10 mg/kg for 120 min. The class given is functional.
In test [26] the test system is Mus musculus. Put plainly: Tested for locomotor activity after oral administration of […] for 120 min. The format is functional.
The test system of test [27] is Mus musculus. Put plainly: Tested for locomotor activity after oral administration of 40 mg/kg for 120 min. The class given is functional.
The subject of test [28] is Rattus norvegicus. Put plainly: Acquisition time in Scopolamine induced avoidance test (performed in rat) for antagonistic activity after peroral administration of 80 mg/kg. The format is functional. Particulars: route oral.
The test system of test [29] is Rattus norvegicus. Put plainly: Retention time in Scopolamine induced avoidance test (performed in rat) for antagonistic activity after peroral administration of 80 mg/kg. Details: dose 80 mg/kg. The class given is functional, organism-based.
Test [30] has as its system Rattus norvegicus. The test is described as follows: Retention time in Scopolamine induced avoidance test (performed in rat) for antagonistic activity after peroral administration of 5 mg/kg. Details: dose 5 mg/kg. The class given is functional, organism-based.

One may read the inhibition as the drop in the measured response relative to a control, in per cent. A lower inhibition goes with little suppression. In general, Ki refers to a dissociation constant, usually derived from enzyme kinetics or from competition with a known ligand. Lower therefore signals higher affinity. Regarding `CCCn1c(=O)c2nc(C3CCCC3)[nH]c2n(CCc2ccc(NC(C)=O)cc2)c1=O`, the inhibition in test [1] came out at 66%. In test [2], this compound gave a Ki of over 100 µM. For the same compound, the Acquisition time in test [3] is given as 23.9 s; in test [4] it was 18.9 s; in test [5], 18.8 s; in test [6] it was 20.5 s; in test [12] it was 12.6 s; in test [13] it was 13.8 s. Also, the Acquisition time is listed as 15.4 s in test [14]; 15.5 s in test [15]; 15.9 s in [16]; 27.8 s in [22]; 12.2 s in test [24]. Besides, the Retention time in [7] was found to be 20 s; in [8] it was 32.2 s; in test [9] it was 47.5 s; in test [10] it was 75.4 s; in test [11], 38.7 s; in test [17], 187 s. In addition, the Retention time in [18] stood at 175 s; in [19], 130 s; in test [20], 170 s; in test [21] it was 116 s; in [23] it was 137 s.
For `Cn1c(=O)c2c(ncn2C)n(C)c1=O` [CAFFEINE], the figures for the Locomotor activity in test [25], in [26] and in [27] were 9386 Counts, 6413 Counts and 9693 Counts, respectively. Moreover, the Acquisition time in test [12] is recorded as 14.6 s; in test [13], 33.8 s; in test [15], 18.3 s; in test [16], 11.5 s; in test [28], 29.6 s. For the same compound, the Retention time in test [29] turned out to be 7.6 s; in test [19] it was 14.9 s; in test [20] it was 11.9 s; in test [30], 12.5 s.
